Read-outs that look alike come from different tables or passages of the source. Each block holds one compound with its values, some of them ahead of it.
How the values were obtained:
PgpGFP [1] = biological target: T1, PgpGFP (Homo sapiens, UniProt P08183); test: Drug mediated microtubule depolymerization in PgpGFP transfected HeLa cells (anti-b-tubulin immunofluorescence); details: for effect of PgpGFP expression on sensitivity of cells to the drug: microtubule depolymerization, 30 min
Experimental: Cells were plated on 18 mm glass coverslips placed in 12-well dishes. […] For tubulin staining, cells were incubated for 30 minutes in the presence of indicated concentrations of vincristine (Calbiochem), colchicine (Calbiochem) or nocodazole (Sigma). Cells were then fixed, permeabilized, and labeled with 2 μg/ml Cy3-labeled anti-b-tubulin antibody, clone TUB 2.1 (Sigma).
We used a functional assay to quantify the effect of PgpGFP expression on the cytosolic activity of chemotherapeutics. Certain chemotherapeutics, such as colchicine, vincristine and nocodazole, depolymerize microtubules. The state of a cell's microtubules after being treated with these drugs is a measurement of the cellular concentration of the drug. Thus, we examined the microtubules using immunofluorescence against b-tubulin after drug treatment.

PgpGFP [2] = biological target: T1, PgpGFP
Experimental: (§1) HeLa cells (ATCC CCL-2) were cultured as per ATCC recommendations.
(§2) Epifluorescence microscopy was done on an inverted IX-70 microscope (Olympus America, Melville, N.Y.). […] Excitation was provided using a 150 Watt Xenon arc lamp (OptiQuip, Beaver Falls, Pa.). Excitation and emission filters were selected using filter wheels (Ludl Electronic Products, Hawthorne, N.Y.). All filters were from Chroma Technology (Brattleboro, Vt.).
(§3) Confocal microscopy was done on an upright Axiplan 2 microscope with a LSM 510 confocal attachment (Carl Zeiss, Thomwood, N.Y.). Excitation was provided an Argon/Krypton laser with lines at 488 nm and 568 nm and a Helium/Neon laser at 633 nm. The following laser lines and emission filters were used for confocal microscopy: GFP λex=488 nm, λem=500-530 nm, Texas Red, Cy3, TMRE: λex=568 nm, λem=580 nm LP, Fura Red, daunorubicin: λex=488 nm, λem=580 nm LP.
(§4) All fluorescent dyes were from Molecular Probes. Daunorubicin was from Calbiochem. Cells were incubated with the indicated drug or dye for the indicated amount of time in Opti-MEM without phenol red and with 10 mM Hepes (Life Technologies, Rockville, Md.) in a 5% CO2, 37° C. incubator prior to observation.

PgpGFP [3] = biological target: T1, PgpGFP; test: Accumulation of fluorescent drugs and dyes in PgpGFP transfected HeLa cells (fluorescence microscopy); details: 30 min incubation, 1 μM daunorubicin (confocal), 200 nM Ho342 (epifluorescence)
Experimental: as §1, §2, §3, §4

PgpCFP = PgpCFP (Homo sapiens, UniProt P08183); test: Accumulation of AM ester dyes in PgpCFP transfected cells (fluorescence microscopy); details: dyes marked (CFP)
PgpCFP, sequence (P08183 whole entry): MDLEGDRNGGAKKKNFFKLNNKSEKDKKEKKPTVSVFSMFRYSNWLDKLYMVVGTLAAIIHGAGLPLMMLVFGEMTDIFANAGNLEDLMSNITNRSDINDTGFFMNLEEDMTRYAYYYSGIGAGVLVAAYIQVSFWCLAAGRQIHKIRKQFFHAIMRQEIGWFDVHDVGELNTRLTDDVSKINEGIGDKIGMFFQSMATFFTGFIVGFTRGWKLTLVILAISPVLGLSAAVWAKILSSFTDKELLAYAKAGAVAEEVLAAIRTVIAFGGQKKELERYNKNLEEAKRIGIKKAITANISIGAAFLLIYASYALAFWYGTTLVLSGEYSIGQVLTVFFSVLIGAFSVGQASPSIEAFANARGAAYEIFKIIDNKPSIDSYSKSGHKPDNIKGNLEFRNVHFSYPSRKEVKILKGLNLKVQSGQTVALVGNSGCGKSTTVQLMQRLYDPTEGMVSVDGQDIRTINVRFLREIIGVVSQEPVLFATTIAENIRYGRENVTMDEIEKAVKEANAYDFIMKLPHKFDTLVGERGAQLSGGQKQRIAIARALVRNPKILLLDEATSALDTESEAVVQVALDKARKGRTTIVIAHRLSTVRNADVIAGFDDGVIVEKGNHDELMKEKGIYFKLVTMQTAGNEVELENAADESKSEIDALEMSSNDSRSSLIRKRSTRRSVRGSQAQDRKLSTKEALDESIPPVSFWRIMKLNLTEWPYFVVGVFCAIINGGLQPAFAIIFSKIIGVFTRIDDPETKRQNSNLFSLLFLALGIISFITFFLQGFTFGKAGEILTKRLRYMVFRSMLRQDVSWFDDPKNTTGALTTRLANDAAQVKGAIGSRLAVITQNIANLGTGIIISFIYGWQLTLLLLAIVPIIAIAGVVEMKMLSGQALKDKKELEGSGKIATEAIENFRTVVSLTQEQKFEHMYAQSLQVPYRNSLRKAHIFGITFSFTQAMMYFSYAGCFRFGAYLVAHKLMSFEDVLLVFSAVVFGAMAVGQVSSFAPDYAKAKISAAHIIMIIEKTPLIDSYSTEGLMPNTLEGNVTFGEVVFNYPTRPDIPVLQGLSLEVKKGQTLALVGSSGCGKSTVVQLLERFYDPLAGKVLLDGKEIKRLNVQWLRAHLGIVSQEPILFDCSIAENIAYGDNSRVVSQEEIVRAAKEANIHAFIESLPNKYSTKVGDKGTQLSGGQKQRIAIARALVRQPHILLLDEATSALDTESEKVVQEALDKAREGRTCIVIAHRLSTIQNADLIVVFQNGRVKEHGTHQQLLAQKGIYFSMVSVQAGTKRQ

T1 sequence (P08183 whole entry): as above

Compound: COc1cc2c(c(OC)c1OC)-c1ccc(OC)c(=O)cc1[C@@H](NC(C)=O)CC2 [Colchicine, colchicine]
Fold resistance (high level PgpGFP expression, drug mediated microtubule depolymerization) (PgpGFP [1]; high level PgpGFP expression): 5-25 fold
effect of PgpGFP expression on sensitivity of cells to the drug (PgpGFP [1]): decreased the sensitivity

Effects on fluorescence (effect of PgpGFP expression on accumulation of AM esters) (PgpGFP [2]): >10 Fold
Compound: CC(=O)OCOC(=O)CN(CC(=O)OCOC(C)=O)c1ccc(C)cc1OCCOc1cc2cc(C=C3NC(=S)NC3=O)oc2cc1N(CC(=O)OCOC(C)=O)CC(=O)OCOC(C)=O [FURA Red AM]

Effects on fluorescence (effect of PgpGFP expression on accumulation of AM esters) (PgpGFP [2]): >10 Fold
Compound: CC(=O)OCOC(=O)CN(CC(=O)OCOC(C)=O)c1ccc(C)cc1OCCOc1cc2cc(-c3ncc(C(=O)OCOC(C)=O)o3)oc2cc1N(CC(=O)OCOC(C)=O)CC(=O)OCOC(C)=O [FURA-2 AM]

Compound: CCOc1ccc(-c2nc3ccc(-c4nc5ccc(N6CCN(C)CC6)cc5[nH]4)cc3[nH]2)cc1 [Ho342, Hoechst 33342]
fluorescence lower in PgpGFP expressing cell compared to Pgp negative cell (PgpGFP [3]): 3 fold

Compound: COC(=O)Nc1nc2ccc(C(=O)c3cccs3)cc2[nH]1 [Nocodazole, nocodazole]
Fold resistance (high level PgpGFP expression, drug mediated microtubule depolymerization) (PgpGFP [1]; high level PgpGFP expression): None
effect of PgpGFP expression on sensitivity of cells to the drug (PgpGFP [1]): no effect

Fold resistance (high level PgpGFP expression, drug mediated microtubule depolymerization) (PgpGFP [1]): 25-125 fold
Compound: CC[C@]1(O)C[C@H]2CN(CCc3c([nH]c4ccccc34)[C@@](C(=O)OC)(c3cc4c(cc3OC)N(C=O)[C@H]3[C@@](O)(C(=O)OC)[C@H](OC(C)=O)[C@]5(CC)C=CCN6CC[C@]43[C@@H]65)C2)C1 [Vincristine, vincristine]

Compound: Calcein AM
Effects on fluorescence (effect of PgpCFP expression on accumulation of AM esters) (PgpCFP): >10 Fold
